Assay results: US20140051650A1, “VAGINAL COMPOSITIONS BASED ON ALKYL POLYGLUCOSIDES” (EFFIK S.A., priority 2011, published 2014)

Assays:
Type in all cases: cell-based
Details in all cases: substance alone
[1] = test system: Streptococcus agalactiae; experiment: Minimum Bactericidal Concentration (MBC) in liquid medium against Streptococcus agalactiae
Protocol: Three Streptococcus agalactiae strains isolated from vaginal-rectal buffers during the prenatal check-ups were used for the assay. The strains were named “strain 2”, “strain 10” and “strain 11”. Isolation was carried out on a blood agar medium and identification was obtained through biochemical tests of the API 20 Strep (Bio-Mérieux) system and through the identification of the Lancefield group.
The experiments were also carried out on a Streptococcus agalactiae ATCC 12386 strain.
“Brain Heart Infusion broth” (BHIb, Becton Dickinson) medium was used for the Streptococcus agalactiae culture, “Mueller-Hinton broth” (M-Hb) medium after adding 2% “laked” horse blood and the “Mueller-Hinton agar” (M-Ha) medium with addition of defibrinated horse blood at 5% (Oxoid) were used for the antimicrobial activity assays.
The Streptococcus agalactiae strains were cultured in BHIb broth for 24 hours at 37° C. Immediately before the assay, the bacterial suspensions were diluted up to obtaining turbidity equivalent to 0.5 McFarland standard. 50 μl of a further 1:100 dilution in broth+blood at 2% were distributed in the wells of the microtitre plates. The presumed titre of the inoculum carried out through this procedure is of about 5×10^4 ufc (units forming colony)/well.
The bacterial cultures were also diluted serially according to a value 10 (up to a dilution value equivalent to 10^−7) and an aliquot of 0.1 ml of each dilution was double streaked on M-Ha +blood 5% for determining the actual titre to be used, subsequently, to determine the MBC (Minimum Bactericidal Concentration).
The assay was carried out in 96-well microtitre plates. 50 μl of M-Hb at normal concentration were deposited in the first well of each of the 5 rows. Starting from the first well of each row, […] volumes were transferred from each well to the subsequent one 10 times, thus obtaining a series of dilutions after doubling. The 12th well of each row was kept substance-free as a positive control of the bacterial growth.
Subsequently, 50 μl of bacterial inoculum of M-Hb+double concentration blood (4%) were deposited in all wells of the plate, except for the 11th of each row. Only M-Hb+double concentration blood but bacteria-free, were deposited in the 11th well, with the aim of providing negative control for each row. The described scheme was used for the assay of each of the three Streptococcus agalactiae strains.
(§1) Immediately after determining the value of the MIC for each substance, a volume equivalent to 50 μl was taken from each well and streaked on the surface of plates containing the solid medium. The plates were subsequently incubated at the conditions indicated for each microbial strain. After incubation at 37° C. for 24 hours, the number of colonies grown on the medium surface was counted thus determining the number of bacteria that survived after 24 hours of contact with the substance at the concentration present in the well. The MBC value defined as the lowest concentration of each substance capable of reducing the bacterial load by 99.9% in the previously defined assay conditions was determined through comparison between the number of bacteria that survived in each well and that of the bacterial inoculum deposited initially.

[2] = test system: Lactobacillus crispatus NCIMB 4505; experiment: MBC against Lactobacillus crispatus
Protocol: as §1, with “The vaginal lactobacillus strains used are the NCIMB 4505 strain of Lactobacillus crispatus, the NCIMB 13279 strain of Lactobacillus jensenii and NCIMB 702820 strain of Lactobacillus gasseri. [table] The other assayed microbial strains were cultured in the liquid media and in the incubation conditions specified in table A, following the operating procedure described above. Immediately” for “Immediately”

[3] = test system: Lactobacillus jensenii NCIMB 13279; experiment: MIC against Lactobacillus jensenii
Protocol: (§2) The vaginal lactobacillus strains used are the NCIMB 4505 strain of Lactobacillus crispatus, the NCIMB 13279 strain of Lactobacillus jensenii and NCIMB 702820 strain of Lactobacillus gasseri. [table] The other assayed microbial strains were cultured in the liquid media and in the incubation conditions specified in table A, following the operating procedure described above. The assay was carried out in 96-well microtitre plates. 50 μl of substance solution at the “mother” concentration alongside 50 μl of liquid medium at double concentration were deposited in the first well of each of the 8 rows while 50 μl of liquid medium at normal concentration were deposited in the remaining 11 wells. Starting from the first well of each row, 50 μl volumes were transferred from each well to the subsequent one 10 times, thus obtaining a series of 11 dilutions after doubling. The 12th well of each row was kept substance-free as a function of positive control of the bacterial growth. Subsequently, 50 μl of diluted bacterial inoculum as specified previously were deposited in all wells of the plate, except for the 11th of each row. Only the liquid medium at single concentration but bacteria-free, was deposited in the 11th well, with the aim of providing negative control for each row. The described scheme was used for the assay with each of the assayed microbial strains. […]

[4] = test system: Lactobacillus jensenii NCIMB 13279; experiment: MBC against Lactobacillus jensenii
Protocol: as §1, with “The vaginal lactobacillus strains used are the NCIMB 4505 strain of Lactobacillus crispatus, the NCIMB 13279 strain of Lactobacillus jensenii and NCIMB 702820 strain of Lactobacillus gasseri. [table] The other assayed microbial strains were cultured in the liquid media and in the incubation conditions specified in table A, following the operating procedure described above. Immediately” for “Immediately”

[5] = test system: Lactobacillus gasseri NCIMB 702820; experiment: MIC against Lactobacillus gasseri
Protocol: as §2

[6] = test system: Lactobacillus gasseri NCIMB 702820; experiment: MBC against Lactobacillus gasseri
Protocol: as §1, with “The vaginal lactobacillus strains used are the NCIMB 4505 strain of Lactobacillus crispatus, the NCIMB 13279 strain of Lactobacillus jensenii and NCIMB 702820 strain of Lactobacillus gasseri. [table] The other assayed microbial strains were cultured in the liquid media and in the incubation conditions specified in table A, following the operating procedure described above. Immediately” for “Immediately”

| Substance | MBC ([1]; ATCC 12386 in M-Hb blood 2%) | MBC ([1]; Strain 2 in M-Hb blood 2%) | MBC ([1]; Strain 10 in M-Hb blood 2%) | MBC ([1]; Strain 11 in M-Hb blood 2%) | MBC [2] [%] | MIC [3] [%] | MBC [4] [%] | MIC [5] [%] | MBC [6] [%] |
| --- | --- | --- | --- | --- | --- | --- | --- | --- | --- |
| caprylyl/capryl glucoside/C8-C10 alkyl polyglucoside [Substance A1] | 0.097 | 0.097 | 0.194 | 0.097 | 0.193 | 0.193 | 0.193 | 0.097 | 0.193 |
| lauryl glucoside/C12-C16 alkyl polyglucoside [Substance A2] | 0.0097 | 0.0097 | 0.019 | 0.0097 | 0.077 | 0.077 | 0.077 | 0.077 | 0.077 |
